Assay results published in US6482921B1, “Uridyl peptide antibiotic (UPA) derivatives, their synthesis and use” (Essential Therapeutics, Inc., priority 1999, dated 2002).
Values after ≈ are worked out from the molar mass of the structure shown.

Key:
Assay type in all cases: cell-based
[1] = tested on: Staphylococcus aureus 8325-4; assay: MIC broth microdilution, S. aureus 8325-4 (wild type); details: S. aureus 8325-4
[2] = tested on: Escherichia Coli MC 4100 AcrAB; assay: MIC broth microdilution, E. coli MC 4100 AcrAB (ΔAcrAB); details: E. coli AcrAB
[3] = tested on: Pseudomonas aeruginosa PAM 1154; assay: MIC broth microdilution, P. aeruginosa PAM 1154 (OprM::Hg); details: P. aeruginosa PAM 1154 OprM::Hg
[4] = tested on: Staphylococcus aureus ATCC 29213; assay: MIC broth microdilution, S. aureus ATCC 29213 (wild type); details: S. aureus ATCC 29213
[5] = tested on: Pseudomonas aeruginosa PAM 1323; assay: MIC broth microdilution, P. aeruginosa PAM 1323 (medium level UPA resistance)
Description: Compounds were tested against several panels of bacteria. In a first panel, Table 3, several strains of Pseudomonas aeruginosa, Escherichia coli and Staphylococcus aureus were employed as the target bacteria.
For the bacteria in Table 3, the assay was performed in Mueller-Hinton Broth (MHB) with a final bacterial inoculum of 5×10^5 CFU/ml and a final volume of 100 μl. Control drugs, including imipenem and pacidimycin 4, and the test compounds were prepared at a concentration which was twice the desired final concentration (256 μg/ml). Dilution of the controls and the test compounds was accomplished directly on the test plates by serial 2-fold dilution using a multi-channel pipette. Both a positive and a negative growth control was included in each plate.
The bacterial inocula were prepared as follows. Bacterial strains were grown overnight at 35° C. in MHB. […] The culture was then diluted 1:10 and allowed to grow for an additional one hour at 35° C. in a shaking incubator. The inocula were then prepared by diluting the early log phase (one hour) cultures 1:2000 with fresh MHB. A volume of 50 μl of the inocula was added to each well, resulting in an inoculum of approximately 5×10^5 CFU/ml. The exact inocula were determined by putting 10 μl of 10-fold serial dilution of the bacterial suspensions onto TSA. After overnight incubation at 35° C., colony-forming units were counted manually.
The microtiter plates were incubated for 20 hours at 35° C. and were then read using a microtiterplate reader (Molecular Devices) at 650 nm as well as being visually observed using a microtiterplate reading mirror.

[6] = tested on: Pasteurella multocida pm002; assay: MIC broth microdilution, P. multocida pm002 (wild type)
Escherichia Coli MC 4100 = assay: MIC broth microdilution, E. coli MC 4100 (wild type); details: E. coli MC 4100
[7] = tested on: Pseudomonas aeruginosa PAM 1135; assay: MIC broth microdilution, P. aeruginosa PAM 1135 (high level UPA resistance); details: P. aeruginosa PAM 1135 UPA1^r
[8] = tested on: Escherichia Coli MC 4100 AcrAB UPA3r; assay: MIC broth microdilution, E. coli MC 4100 AcrAB UPA3r (ΔAcrAB, UPA resistant); details: E. coli AcrAB UPA3^r
[9] = tested on: Pseudomonas aeruginosa PAM 1020; assay: MIC broth microdilution, P. aeruginosa PAM 1020 (wild type); details: P. aeruginosa PAM 1020

Compound	MIC (μg/ml) Broth microdilution [1] [µg/mL]	MIC (μg/ml) Broth microdilution [2] [µg/mL]	MIC (μg/ml) Broth microdilution [3] [µg/mL]	MIC (μg/ml) Broth microdilution [4] [µg/mL]	MIC (μg/ml) Broth microdilution [5] [µg/mL]	MIC (μg/ml) Broth microdilution [6] [µg/mL]	MIC (μg/ml) Broth microdilution (Escherichia Coli MC 4100) [µg/mL]	MIC (μg/ml) Broth microdilution [7] [µg/mL]	MIC (μg/ml) Broth microdilution [8] [µg/mL]	MIC (μg/ml) Broth microdilution [9] [µg/mL]
1-[5′-[(2S,3S)-N^2-[N-[[(1S)-1-Carboxy-2-indol-3-ylethyl]carbamoyl]-L-alanyl]-N^3-L-3-hydroxyphenylalanyl-N^3-methyl-2,3-diaminobutyramidol-3′,5′-dideoxy-α-L-arabinofuranosyl]uracil [Compound 103]	256	2	8	512	512	256	512	>512	32	16
1-[5′-[(2S,3S)-N^3-L-Alanyl-N^2-[(2R)-2-benzyl-N-[(1S)-1-carboxy-2-indol-3-ylethyl]succinimoyl]-N^3-methyl-2,3-diaminobutyramido]-3′,5′-dideoxy-α-L-arabinofuranosyl]uracil [Compound 154]	>512	8	8	>512	>512	>512	>512	>512	128	64
1-[5′-[(2S,3S)-N^3-L-Alanyl-N^2-[N-([(1S)-1-carboxy-phenethyl]carbamoyl]-L-leucinyl]-N^3-methyl-2,3-diaminobutyramido]-3′,5′-dideoxy-α-L-arabinofuranosyl]uracil [Compound 166]	>512	16	>512	>512	>512	512	>512	>512	256	>512
1-[5′[(2S,3S)-N^2-[N-[[(1S)-1-Carboxy-4-hydroxyphenethyl]carbamoyl]-L-4-fluorophenylalanyl)-N^3-L-phenylalanyl-N^3-methyl-2,3-diaminobutyramido]-3′,5′-dideoxy-β-L-arabinofuranosyl]uracil [Compound 106]	>512	8	64	>512	256	512	512	256	512	32
CC(N)C(=O)N(C)C(C)C(NC(=O)C(Cc1ccc(F)cc1)NC(=O)NC(C(=O)O)c1ccccc1)C(=O)NCC1CC(O)C(n2ccc(=O)[nH]c2=O)O1 (mixture of isomers) [Compound 141, 1-[5′-[(2S,3S)-N^3-L-Alanyl-N^2-[N-[[α(R,S)-1-carboxy-phenmethyl]carbamoyl]-L-4-fluorophenylalanyl]-N^3-methyl-2,3-diaminobutyramido]-3′,5′-dideoxy-α-L-arabinofuranosyl]uracil]	>512	16	512	>512	>512	>512	>512	>512	>512	>512
CC(N)C(=O)N(C)C(C)C(NC(=O)C(Cc1ccc(F)cc1)NC(=O)NC(C(=O)O)c1ccccc1)C(=O)NCC1CC(O)C(n2ccc(=O)[nH]c2=O)O1 (mixture of isomers) [Compound 142, 1-[5′-[(2S,3S)-N^3-L-Alanyl-N^2-[N-[[α(S,R)-1-carboxy-phenmethyl]carbamoyl]-L-4-fluorophenylalanyl]-N^3-methyl-2,3-diaminobutyramidol-3′,5′-dideoxy-α-L-arabinofuranosyl]uracil]	>512	4	64	>512	>512	>512	512	>512	32	512
CC(C(NC(=O)C(Cc1ccccc1)NC(=O)NC(Cc1ccc(O)cc1)C(=O)O)C(=O)NCC1CC(O)C(n2ccc(=O)[nH]c2=O)O1)N(C)C(=O)C(N)Cc1ccccc1 [Compound 100, 1-[5′-[(2S,3S)-N^2-[N-[[(1S)-1-Carboxy-4-hydroxyphenethyl]carbamoyl]-L-phenylalanyl]-N^3-L-phenylalanyl-N^3-methyl-2,3-diaminobutyramido]-3′,5′-dideoxy-α-L-arabinofuranosyl]uracil]	512 (≈ 607 µM)	<1	8 (≈ 9.49 µM)	>512	>512	256 (≈ 304 µM)	8 (≈ 9.49 µM)	>512	2 (≈ 2.37 µM)	32 (≈ 38 µM)
CC(C)CC(N)C(=O)N(C)C(C)C(NC(=O)C(Cc1ccccc1)NC(=O)NC(Cc1ccc(O)cc1)C(=O)O)C(=O)NCC1CC(O)C(n2ccc(=O)[nH]c2=O)O1 [Compound 101, 1-[5′-[(2S,3S)-N^2-[N-[[(1S)-1-Carboxy-4-hydroxyphenethyl]carbamoyl]-L-phenylalanyl]-N^3-L-leucyl-N^3-methyl-2,3-diaminobutyramido]-3′,5′-dideoxy-α-L-arabinofuranosyl]uracil]	>512	2 (≈ 2.47 µM)	8 (≈ 9.89 µM)	>512	>512	>512	>512	>512	128 (≈ 158 µM)	128 (≈ 158 µM)
CC(C(NC(=O)C(Cc1ccccc1)NC(=O)NC(Cc1ccc(O)cc1)C(=O)O)C(=O)NCC1CC(O)C(n2ccc(=O)[nH]c2=O)O1)N(C)C(=O)CN [Compound 102, 1-[5′-[(2S,3S)-N^2-[N-[[(1S)-1-Carboxy-4-hydroxyphenethyl]carbamoyl]-L-phenylalanyl]-N^3-glycyl-N^3-methyl-2,3-diaminobutyramido]-3′,5′-dideoxy-α-L-arabinofuranosyl]uracil]	512 (≈ 680 µM)	<1	8 (≈ 10.6 µM)	>512	512 (≈ 680 µM)	256 (≈ 340 µM)	512 (≈ 680 µM)	>512	16 (≈ 21.3 µM)	32 (≈ 42.5 µM)
